Measurements reported in patent US10226501B2, “Method of orally administering a date fruit extract to treat breast cancer” (King Abdulaziz University, priority 2017, dated 2019).

Test system: female Wistar rats having DMBA-induced breast cancer
Test: Serum antioxidant enzyme activities in rats with DMBA-induced breast cancer
Assay type: in vivo, rat
Details: oral, daily for three months, ADE 1 or 0.5 g/kg b.w., melatonin 2.5 mM
Excerpt: This is an in vivo experiment showing the improvement of Ajwa Date Extract (ADE) on the antioxidant system in rats having breast cancer induced by 7,12-Dimethylbenz[a]anthracene (DMBA).
The experiment of DMBA-induced breast cancer in female Wistar rats was comprised of six different treatment groups: the untreated controls (administered normal diet), DMBA-treated, DMBA-treated and orally administered 1 g/kg b.w. (body weight) of ADE, DMBA-treated and orally administered 0.5 g/kg b.w. of ADE, DMBA-treated and administered orally 2.5 mM melatonin, and DMBA-treated and administered 2.5 mM melatonin plus 1 g/kg b.w. of ADE. All six groups were treated daily for three months. On sacrification day, samples of blood were collected with the serum being separated and stored at −80° C.
The collected sera were analyzed for four mean activities namely, of superoxide dismutase (SOD) catalase, glutathione reductase (GR), and glutathione peroxidase (GPx). The means of the four activities in sera of the six treatment groups are illustrated in FIGS. 4-7. The mean serum SOD (FIG. 4), catalase (FIG. 5), GR (FIG. 6), and GPx (FIG. 7) in DMBA and ADE and/or melatonin administered rats was higher than that of the DMBA administered rats that were deprived of the ADE and/or melatonin.

COc1ccc2[nH]cc(CCNC(C)=O)c2c1 [melatonin]
higher: mean serum SOD activity (compared with DMBA-only rats (FIG. 4)) | mean serum catalase activity (compared with DMBA-only rats (FIG. 5)) | mean serum GR activity (compared with DMBA-only rats (FIG. 6)) | mean serum GPx activity (compared with DMBA-only rats (FIG. 7))
